Assay results reported in patent US20140045746A1 (Merck Sharp & Dohme Corp., priority 2012, published 2014).
pEC50: −log10 of the molar value.

Assays:
hGPR40 [1] = molecular target: T1, hGPR40 (Homo sapiens, UniProt O14842); assay: GPR40 Inositol Phosphate Turnover (IP1) Assay; type: cell-based; design: expressed in transfected cells; host or cells: HEK cells stably expressing the aequorin reporter; conditions: HEK cells stably expressing human GPR40; 0% serum; read-out: hGPR40 IP1 EC50 (0% serum)
T1 sequence (O14842 whole entry): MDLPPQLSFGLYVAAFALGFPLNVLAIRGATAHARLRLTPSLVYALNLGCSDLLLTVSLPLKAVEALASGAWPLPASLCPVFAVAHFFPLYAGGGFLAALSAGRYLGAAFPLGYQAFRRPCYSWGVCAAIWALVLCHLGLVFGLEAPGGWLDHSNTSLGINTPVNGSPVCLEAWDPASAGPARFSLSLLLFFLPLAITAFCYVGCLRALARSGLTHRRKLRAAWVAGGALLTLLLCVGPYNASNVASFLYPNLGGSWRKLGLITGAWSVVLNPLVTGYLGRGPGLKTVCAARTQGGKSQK

hGPR40 [2] = molecular target: T1, hGPR40; assay: GPR40 FLIPR assay (agonist-induced calcium mobilization); type: cell-based; design: expressed in transfected cells; host or cells: CHO cells stably expressing NFAT BLA (beta-lactamase); conditions: GPR40/CHO NFAT BLA cells;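 further: calcium mobilization in the cells read as fluorescence of fluo-4 AM loaded cells on FLIPR after compound addition, cells preloaded with dye 100 min at room temperature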

SMILES	pEC50 (hGPR40 [1])	pEC50 (hGPR40 [2])
Cc1cc(CCCCS(C)(=O)=O)cc(C)c1-c1ccc(F)c(COc2cc3c(cn2)[C@H]2[C@@H](C3)[C@@H]2C(=O)O)c1 [Compound 19-16, (5aR,6S,6aS)-3-((4-fluoro-2′,6′-dimethyl-4′-(4-(methylsulfonyl)butyl)-[1,1′-biphenyl]-3-yl)methoxy)-5,5a,6,6a-tetrahydrocyclopropa[4,5]cyclopenta[1,2-c]pyridine-6-carboxylic acid]	8.14	6.80
Cc1cc(CCCC(C)(C)O)cc(C)c1-c1ccc(F)c(COc2cc3c(cn2)[C@H]2[C@@H](C3)[C@@H]2C(=O)O)c1 [Compound 19-19, (5aR,6S,6aS)-3-((4-fluoro-4′-(4-hydroxy-4-methylpentyl)-2′,6′-dimethyl-[1,1′-biphenyl]-3-yl)methoxy)-5,5a,6,6a-tetrahydrocyclopropa[4,5]cyclopenta[1,2-c]pyridine-6-carboxylic acid]	8.26	7.44
CC(C)(O)CCOc1cc(C(F)(F)F)c(-c2ccc(F)c(COc3cc4c(cn3)C3C(C4)C3C(=O)O)c2)cn1 (stereo not drawn) [Compound 20-5, 3-((2-fluoro-5-(6-(3-hydroxy-3-methylbutoxy)-4-(trifluoromethyl)pyridin-3-yl)benzyl)oxy)-5,5a,6,6a-tetrahydrocyclopropa[4,5]cyclopenta[1,2-c]pyridine-6-carboxylic acid]	7.82	7.12
CC(C)(O)CCOc1cc(C(F)(F)F)c(-c2cccc(COc3cc4c(cn3)[C@H]3[C@@H](C4)[C@@H]3C(=O)O)c2)cn1 [Compound 20-6, (5aR,6S,6aS)-3-((3-(6-(3-hydroxy-3-methylbutoxy)-4-(trifluoromethyl)pyridin-3-yl)benzyl)oxy)-5,5a,6,6a-tetrahydro-cyclopropa[4,5] cyclopenta[1,2-c] pyridine-6-carboxylic acid]	8.31	7.72
Cc1nc(OC2CCC(C(C)(C)O)CC2)ccc1-c1ccc(F)c(COc2cc3c(cn2)[C@H]2[C@@H](C3)[C@@H]2C(=O)O)c1 (stereo partly drawn) [Compound 20-8, (5aR,6S,6aS)-3-((2-fluoro-5-(6-((4-(2-hydroxypropan-2-yl)cyclohexyl)oxy)-2-methyl-pyridin-3-yl)benzyl)oxy)-5,5a, 6,6a-tetrahydro-cyclopropa[4,5] cyclopenta[1,2-c] pyridine-6-carboxylic acid]	6.76	7.00
CC(C)(O)CCCOc1cc(C(F)(F)F)c(-c2ccc(F)c(COc3cc4c(cn3)[C@H]3[C@@H](C4)[C@@H]3C(=O)O)c2)cn1 [Compound 21-7, 3-((2-fluoro-5-(6-((4-hydroxy-4-methylpentyl)oxy)-4-(trifluoromethyl)pyridin-3-yl)benzyl)oxy)-5,5a,6,6a-tetrahydrocyclopropa[4,5]cyclopenta[1,2-c]pyridine-6-carboxylic acid]	8.21	7.96
CC(C)(O)CCCOc1cc(C(F)(F)F)c(-c2cccc(COc3cc4c(cn3)[C@H]3[C@@H](C4)[C@@H]3C(=O)O)c2)cn1 [Compound 21-8, (5aR,6S,6aS)-3-((3-(6-((4-hydroxy-4-methylpentyl)-oxy)-4-(trifluoromethyl)-pyridin-3-yl)benzyl)oxy)-5,5a,6,6a-tetrahydrocyclo-propa[4,5]cyclopenta [1,2-c]pyridine-6-carboxylic acid]	8.21	7.82
Cc1cccc(C)c1-c1ccc(F)c(COc2cc3c(cn2)[C@H]2[C@@H](C3)[C@@H]2C(=O)O)c1 [Compound 22-2]	7.59	7.31
O=C(O)C1C2Cc3cc(OCc4cc(-c5ccccc5C(F)(F)F)ccc4F)ncc3C21 (stereo not drawn) [Compound 22-3, 3-((4-fluoro-2′-(trifluoromethyl)-[1,1′-biphenyl]-3-yl)methoxy)-5,5a,6,6a-tetrahydrocyclo-propa[4,5]cyclopenta[1,2-c]pyridine-6-carboxylic acid]	7.46	7.44
O=C(O)C1C2Cc3cc(OCc4cc(-c5ccc(C(F)(F)F)cc5)ccc4F)ncc3C21 (stereo not drawn) [Compound 22-4, 3-((4-fluoro-4′-(trifluoromethyl)-[1,1′-biphenyl]-3-yl)methoxy)-5,5a,6,6a-tetrahydrocyclo-propa[4,5]cyclopenta[1,2-c]pyridine-6-carboxylic acid]	6.62	7.27
O=C(O)C1C2Cc3cc(OCc4cc(-c5cccc(C(F)(F)F)c5)ccc4F)ncc3C21 (stereo not drawn) [Compound 22-5, 3-((4-fluoro-3′-(trifluoromethyl)-[1,1′-biphenyl]-3-yl)methoxy)-5,5a,6,6a-tetrahydrocyclo-propa[4,5]cyclopenta[1,2-c]pyridine-6-carboxylic acid]	6.51	7.33
O=C(O)C1C2Cc3cc(OCc4cc(-c5c(F)cccc5C(F)(F)F)ccc4F)ncc3C21 (stereo not drawn) [Compound 22-6, 3-((2′,4-difluoro-6′-(trifluoromethyl)-[1,1′-biphenyl]-3-yl)methoxy)-5,5a,6,6a-tetrahydrocyclo-propa[4,5]cyclopenta[1,2-c]pyridine-6-carboxylic acid]	7.00	7.06
O=C(O)C1C2Cc3cc(OCc4cc(-c5cc(Cl)cc(C(F)(F)F)c5)ccc4F)ncc3C21 (stereo not drawn) [Compound 22-7, 3-((3′-chloro-4-fluoro-5′-(trifluoromethyl)-[1,1′-biphenyl]-3-yl)methoxy)-5,5a,6,6a-tetrahydrocyclo-propa[4,5]cyclopenta[1,2-c]pyridine-6-carboxylic acid]	6.40	7.17
O=C(O)C1C2Cc3cc(OCc4cc(-c5cccnc5C(F)(F)F)ccc4F)ncc3C21 (stereo not drawn) [Compound 22-8, 3-((2-fluoro-5-(2-(trifluoromethyl)pyridin-3-yl)benzyl)oxy)-5,5a,6,6a-tetrahydrocyclopenta[4,5] cyclopenta[1,2-c]pyridine-6-carboxylic acid]	7.12	7.32
O=C(O)C1C2Cc3cc(OCc4cc(-c5ncccc5C(F)(F)F)ccc4F)ncc3C21 (stereo not drawn) [Compound 22-9, 3-((2-fluoro-5-(3-(trifluoromethyl)pyridin-2-yl)benzyl)oxy)-5,5a,6,6a-tetrahydrocyclopropa[4,5] cyclopenta[1,2-c]pyridine-6-carboxylic acid]	6.07	7.02
Cc1cc(OCCCS(C)(=O)=O)ncc1-c1ccc(F)c(COc2cc3c(cn2)[C@H]2[C@@H](C3)[C@@H]2C(=O)O)c1 [Compound 23-8, 4-{2-Fluoro-5-[6-(3-methanesulfonyl-propoxy)-4-methyl-pyridin-3-yl]-benzyloxy}-1,1a,6,6a-tetrahydro-3-aza-cyclopropa[a]indene-1-carboxylic acid]	8.32	7.59
Cc1nc(OCCCS(C)(=O)=O)ccc1-c1ccc(F)c(COc2cc3c(cn2)[C@H]2[C@@H](C3)[C@@H]2C(=O)O)c1 [Compound 23-10, (5aR,6S,6aS)-3-((2-fluoro-5-(2-methyl-6-(3-(methylsulfonyl)propoxy)pyridin-3-yl)benzyl)oxy)-5,5a,6,6a-tetrahydro-cyclopropa[4,5] cyclopenta[1,2-c] pyridine-6-carboxylic acid]	7.82	7.34
Cc1cc(OCCCS(C)(=O)=O)nc(C)c1-c1cccc(COc2cc3c(cn2)[C@H]2[C@@H](C3)[C@@H]2C(=O)O)c1 [Compound 23-11, (5aR,6S,6aS)-3-((3-(2,4-dimethyl-6-(3-(methylsulfonyl)propoxy)pyridin-3-yl)benzyl)oxy)-5,5a, 6,6a-tetrahydrocyclo propa[4,5]cyclopenta [1,2-c]pyridine-6-carboxylic acid]	7.60	7.30
